This note sets out measurements from US7312225B2, “Macrocyclic pyrimidines, their production and use as pharmaceutical agents” (Bayer Schering Pharma AG, priority 2002, dated 2007).

Molecules are shown by their SMILES. Read-outs that look alike come from different tables or passages of the source.

For assay [1], the target named is T1, CDK2/CycE (Homo sapiens, UniProt P24941).
T1 construct: GST; purchased ProQinase GmbH, Freiburg; host or cells: baculovirus-infected insect cells (Sf9)
Put plainly: CDK2/CycE kinase assay. It counts as biochemical. The protocol: Recombinant CDK2- and CycE-GST-fusion proteins, purified from baculovirus-infected insect cells (Sf9), were purchased from ProQinase GmbH, Freiburg. Histone IIIS, which was used as a kinase substrate, was purchased from the Sigma Company.
The reaction was stopped by adding EDTA solution (250 mmol, pH 8.0, 14 μl/measuring point).
From each reaction batch, 10 μl was applied to P30 filter strips (Wallac Company), and non-incorporated ^33P-ATP was removed by subjecting the filter strips to three washing cycles for 10 minutes each in 0.5% phosphoric acid. After the filter strips were dried for one hour at 70° C., the filter strips were covered with scintillator strips (MeltiLex™ A, Wallac Company) and baked for one hour at 90° C. The amount of incorporated ^33P (substrate phosphorylation) was determined by scintillation measurement in a gamma-radiation measuring device (Wallac).

Assay [2] has as its system MCF7. Kind of assay: Proliferation assay MCF7. It counts as cell-based. The following applies: Homo sapiens, MCF7, 96 h, 4 days incubation, crystal violet. The text has this: (§1) Cultivated human tumor cells (MCF7, […] human breast cancer cells, relative to ATCC HTB22; NCI-H460, human non-small-cell lung cancer cells, ATCC HTB-177, HCT 116, human colon cancer cells, ATCC CCL-247; DU 145, hormone-independent human prostate cancer cells, ATCC HTB-81; MaTu-MDR, hormone-independent, multiple pharmaceutical agent-resistant human breast cancer cells, EPO-GmbH, Berlin) were flattened out at a density of about 5000 cells/measuring point, depending on growth rates of the respective cells in a 96-well multititer plate in 200 μl of the corresponding growth medium. After 24 hours, the cells of one plate (zero-point plate) were colored with crystal violet (see below), while the medium of the other plates was replaced by fresh culture medium (200 μl), to which the test substances were added at various concentrations (0 μmol, as well as in the range of 0.01-30 μmol; the final concentration of the solvent dimethyl sulfoxide was 0.5%). The cells were incubated for 4 days in the presence of test substances. The cell proliferation was determined by coloring the cells with crystal violet: the cells were fixed by adding 20 μl/measuring point of an 11% glutaric aldehyde solution for 15 minutes at room temperature. After three washing cycles of the fixed cells with water, the plates were dried at room temperature. The cells were colored by adding 100 μl/measuring point of a 0.1% crystal violet solution (pH was set at 3 by adding acetic acid). After three washing cycles of the colored cells with water, the plates were dried at room temperature. The dye was dissolved by adding 100 μl/measuring point of a 10% acetic acid solution. The extinction was determined by photometry at a wavelength of 595 nm. The change of cell growth, in percent, was calculated by standardization of the measured values to the extinction values of the zero-point plate (=0%) and the extinction of the untreated (0 μm) cells (=100%).

For assay [3], the target named is T2, CDK1/CycB (Homo sapiens, UniProt P06493).
T2 construct: GST; purchased ProQinase GmbH, Freiburg; host or cells: baculovirus-infected insect cells (Sf9)
T2 sequence (P06493 whole entry): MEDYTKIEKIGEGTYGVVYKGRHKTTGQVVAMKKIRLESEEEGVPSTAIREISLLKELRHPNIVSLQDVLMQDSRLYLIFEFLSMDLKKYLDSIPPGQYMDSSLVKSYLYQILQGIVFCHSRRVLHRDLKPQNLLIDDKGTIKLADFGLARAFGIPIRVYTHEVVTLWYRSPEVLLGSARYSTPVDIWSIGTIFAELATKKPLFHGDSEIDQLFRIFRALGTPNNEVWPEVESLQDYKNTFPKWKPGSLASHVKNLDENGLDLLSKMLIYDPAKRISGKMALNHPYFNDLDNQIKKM
T2 sequence (P14635 whole entry partner): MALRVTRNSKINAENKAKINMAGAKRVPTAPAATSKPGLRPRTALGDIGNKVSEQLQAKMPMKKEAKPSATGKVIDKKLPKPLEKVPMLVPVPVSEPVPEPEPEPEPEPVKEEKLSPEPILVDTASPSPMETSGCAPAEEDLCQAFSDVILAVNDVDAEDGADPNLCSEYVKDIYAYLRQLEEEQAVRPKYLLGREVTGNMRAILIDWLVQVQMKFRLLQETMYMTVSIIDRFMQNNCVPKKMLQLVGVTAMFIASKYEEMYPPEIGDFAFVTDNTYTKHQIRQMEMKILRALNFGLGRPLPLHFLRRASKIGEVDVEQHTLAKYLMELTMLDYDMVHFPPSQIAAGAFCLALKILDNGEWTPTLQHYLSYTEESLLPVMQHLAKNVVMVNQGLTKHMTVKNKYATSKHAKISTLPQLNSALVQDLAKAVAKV
Put plainly: CDK1/CycB kinase assay. In kind it is biochemical. The following applies: Table I. How it is done:
Recombinant CDK1- and CycB-GST fusion proteins, purified from baculovirus-infected insect cells (Sf9), were purchased from ProQinase GmbH, Freiburg. Histone IIIS, which was used as a kinase substrate, is commercially available from the Sigma Company.
CDK1/CycB (200 ng/measuring point) was incubated for 15 minutes at 22° C. in the presence of various concentrations of test substances (0 μm, as well as within the range of 0.01-100 μm) in assay buffer [50 mmol of tris/HCl, pH 8.0, 10 mmol of MgCl2, 0.1 mmol of Na ortho-vanadate, 1.0 mmol of dithiothreitol, 0.5 μm of adenosine triphosphate (ATP), 10 μg/measuring point of histone IIIS, 0.2 μCi/measuring point of 33P-gamma ATP, 0.05% NP40, 12.5% dimethyl sulfoxide]. The reaction was stopped by adding EDTA solution (250 mmol, pH 8.0, 14 μl/measuring point).
From each reaction batch, 10 μl was applied to P30 filter strips (Wallac Company), and non-incorporated 33P-ATP was removed by three washing cycles of the filter strips for 10 minutes each in 0.5% phosphoric acid. After the filter strips were dried for 1 hour at 70° C., the filter strips were covered with scintillator strips (MeltiLex™ A, Wallac Company) and baked for one hour at 90° C. The amount of incorporated 33P (substrate phosphorylation) was determined by scintillation measurement in a gamma-radiation measuring device (Wallac).

The target of assay [4] is T3, VEGF Receptor tyrosine kinase-2 (Homo sapiens, UniProt P35968).
T3 construct: GST; made in house; host or cells: baculovirus-infected insect cells (Sf9)
T3 sequence (P35968 20-1356): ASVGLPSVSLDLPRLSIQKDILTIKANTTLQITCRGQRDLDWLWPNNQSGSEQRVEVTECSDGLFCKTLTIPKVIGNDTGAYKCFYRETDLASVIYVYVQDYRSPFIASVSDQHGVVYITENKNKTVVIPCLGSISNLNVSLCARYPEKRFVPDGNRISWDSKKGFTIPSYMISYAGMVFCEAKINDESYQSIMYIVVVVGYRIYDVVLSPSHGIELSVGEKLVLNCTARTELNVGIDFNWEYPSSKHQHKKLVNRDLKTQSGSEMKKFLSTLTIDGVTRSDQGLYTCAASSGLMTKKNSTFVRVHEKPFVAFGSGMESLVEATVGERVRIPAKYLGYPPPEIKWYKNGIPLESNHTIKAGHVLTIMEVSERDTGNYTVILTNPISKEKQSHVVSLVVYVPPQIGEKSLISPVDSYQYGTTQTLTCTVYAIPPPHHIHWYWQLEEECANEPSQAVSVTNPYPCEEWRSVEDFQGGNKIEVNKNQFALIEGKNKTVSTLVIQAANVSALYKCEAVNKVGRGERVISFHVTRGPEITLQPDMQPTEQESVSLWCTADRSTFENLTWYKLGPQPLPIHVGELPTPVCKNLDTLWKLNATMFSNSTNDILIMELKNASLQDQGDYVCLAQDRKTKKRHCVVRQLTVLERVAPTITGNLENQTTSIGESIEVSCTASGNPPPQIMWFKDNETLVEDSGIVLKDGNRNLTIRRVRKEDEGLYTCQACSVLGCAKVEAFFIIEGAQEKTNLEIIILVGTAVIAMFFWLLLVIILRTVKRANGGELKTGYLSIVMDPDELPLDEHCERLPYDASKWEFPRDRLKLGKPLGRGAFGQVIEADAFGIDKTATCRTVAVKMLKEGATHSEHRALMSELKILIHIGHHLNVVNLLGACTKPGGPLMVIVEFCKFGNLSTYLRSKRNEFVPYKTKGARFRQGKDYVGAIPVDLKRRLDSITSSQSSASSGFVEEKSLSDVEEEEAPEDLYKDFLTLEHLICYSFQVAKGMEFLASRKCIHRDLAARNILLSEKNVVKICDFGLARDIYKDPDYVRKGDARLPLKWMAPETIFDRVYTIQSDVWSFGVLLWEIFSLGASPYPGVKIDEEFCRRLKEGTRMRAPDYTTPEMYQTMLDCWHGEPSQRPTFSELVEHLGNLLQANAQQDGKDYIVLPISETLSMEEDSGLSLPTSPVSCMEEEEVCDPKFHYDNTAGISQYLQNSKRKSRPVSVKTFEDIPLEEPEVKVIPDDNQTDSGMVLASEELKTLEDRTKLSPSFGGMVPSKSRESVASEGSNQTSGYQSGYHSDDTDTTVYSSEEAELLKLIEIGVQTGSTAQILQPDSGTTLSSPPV
Kind of assay: VEGF Rezeptor-2 kinase assay. It counts as biochemical. The note with it: Table I; read-out: VEGF-R2 IC50. The protocol:
VEGF Rezeptor-2 Kinase Assay
Recombinant VEGF Receptor tyrosine kinase-2 was purified as GST-fusion protein from baculovirus-infected insect cells (Sf9). Poly-(Glu4Tyr), which was used as a kinase substrate, was purchased from the Sigma Company.
VEGF Receptor tyrosine kinase (90 ng/measuring point) was incubated for 10 minutes at 22° C. in the presence of various concentrations of test substances (0 μmol, as well as within the range of 0.001-30 μM) in 30 μl of assay buffer [40 mmol of Tris/HCl […], 10 mmol of MgCl2, 1 mmol of MnCl2, 3 μmol of Na orthovanadate, 1.0 mmol of dithiothreitol, 8 μmol of adenosine trisphosphate (ATP), 27 μg/measuring point of poly-(Glu4Tyr), 0.2 μCi/measuring point of ^33P-gamma ATP, 1% dimethyl sulfoxide]. The reaction was stopped by adding EDTA solution (250 mmol, pH 7.0, 10 μl/measuring point).
From each reaction batch, 10 μl was applied to P30 filter strips (Wallac Company), and non-incorporated 33P-ATP was removed by subjecting the filter strips to three washing cycles for 10 minutes each in 0.5% phosphoric acid. After the filter strips were dried for 1 hour at 70° C., the filter strips were covered with scintillator strips (MeltiLex™ A, Wallac Company) and baked on for 1 hour at 90° C. The amount of incorporated 33P (substrate phosphorylation) was determined by scintillation measurement in a gamma-radiation measuring device (Wallac).

The test system of assay [5] is MaTu-ADR. Kind of assay: Proliferation assay MaTu-ADR. It counts as cell-based. The following applies: Homo sapiens, 96 h; Table II; 4 days incubation, crystal violet; read-out: Proliferation IC50 MaTu-ADR.
From the text: as §1

Assay [6] deals with HCT116. Kind of assay: Proliferation assay HCT116. It counts as cell-based. The following applies: Homo sapiens, HCT-116, 96 h; Table II; 4 days incubation, crystal violet.
From the text: as §1

For assay [7], the system named is DU145. Put plainly: Proliferation assay DU145. In kind it is cell-based. The note with it: Homo sapiens, DU-145, 96 h; Table II; 4 days incubation, crystal violet.
From the text: as §1

Assay [8] has as its system H460. Kind of assay: Proliferation assay H460. It counts as cell-based. The note with it: Homo sapiens, NCI-H460, 96 h; Table II; 4 days incubation, crystal violet.
From the text: as §1

Where [9] appears, read: Table I, read-out: CDK2/CycE IC50.
The mark [10] stands for this setting: Table II, read-out: Inhibition IC50 CDK2/CycE.
[11] abbreviates: Table II, read-out: Proliferation IC50 MCF7.

For the compound `O=S1(=O)NCC(O)CNc2nc(ncc2Br)Nc2cccc1c2` (racemic) [Example 1.2, rac-1^5-Bromo-4-thia-2,5,9-triaza-1(2,4)-pyrimidina-3(1,3)-benzenacyclononaphan-7-ol-4,4-dioxide], the IC50 in assay [1] (setting [9]) worked out at 510 nM; in assay [2] (Table I, read-out: MCF7 IC50), 2600 nM; in assay [3], 40 nM.

With `O=S1(=O)NCCC(CO)Nc2nc(ncc2Br)Nc2cccc1c2` (single isomer, unassigned) [1.3 (+) Enantiomer], the IC50 in assay [1] (setting [9]) was 23 nM; in assay [2] (Table I, read-out: MCF7 IC50), 900 nM; in assay [4], 69 nM.

`O=S1(=O)NCCC(CO)Nc2nc(ncc2Br)Nc2cccc1c2` (single isomer, unassigned) [Example 1.3 (+) Enantiomer]: the IC50 in assay [1] (setting [10]) turned out to be 23 nM; in assay [5] it was 4000 nM; in assay [2] (setting [11]), 900 nM; in assay [6], 1400 nM; in assay [7], 4000 nM; in assay [8], 2100 nM.

Consider `O=S1(=O)NCCCCCNc2nc(ncc2Br)Nc2cccc1c2` [Example 1.0, 1^5-Bromo-4-thia-2,5,11-triaza-1(2,4)-pyrimidina-3(1,3)-benzenacycloundecaphane 4,4-dioxides], for which the IC50 in assay [1] (setting [9]) came out at 420 nM; in assay [1] (setting [10]) it was 420 nM; in assay [5] it was 700 nM; in assay [2] (Table I, read-out: MCF7 IC50), 1100 nM; in assay [2] (setting [11]), 1100 nM; in assay [6], 1300 nM. For the same compound, the IC50 came out at 2000 nM in assay [7], 200 nM in assay [3] and 1800 nM in assay [8].

Consider `O=S1(=O)NCCCOc2nc(ncc2Br)Nc2cccc1c2` [Example 3.0, 1^5-Bromo-9-oxa-4-thia-2,5-diaza-1(2,4)-pyrimidina-3(1,3)-benzenacyclononaphane-4,4-dioxide], for which the IC50 worked out at 160 nM in assay [1] (setting [9]); 1600 nM in assay [2] (Table I, read-out: MCF7 IC50); 50 nM in assay [3]; 89 nM in assay [4].

In assay [3], `N#Cc1cnc2nc1NCCCNS(=O)(=O)c1cccc(c1)N2` [Example 5.0, 1^5-Cyano-4-thia-2,5,9-triaza-1(2,4)-pyrimidina-3(1,3)-benzenacyclononaphane 4,4-dioxide] returned an IC50 of 300 nM.

Take `Brc1cnc2nc1NCCCCOc1cccc(c1)N2` [Example 7.1, 1^5-Bromo-4-oxa-2,9-diaza-1(2,4)-pyrimidina-3(1,3)-benzenacyclononaphane]: the IC50 is 2400 nM in assay [1] (setting [10]) and 4000 nM in assay [2] (setting [11]).

For `O=C1NCCCNc2nc(ncc2Br)Nc2cccc(c2)N1` [Example 10.0, 1^5-Bromo-2,4,6,10-tetraaza-1(2,4)-pyrimidina-3(1,3)-benzenacyclodecaphan-5-one], the IC50 was found to be 120 nM in assay [1] (setting [9]); 6000 nM in assay [2] (Table I, read-out: MCF7 IC50); 360 nM in assay [3].

With `CCc1cnc2nc1NCCCCCNS(=O)(=O)c1cccc(c1)N2` [Example 14.2], the IC50 in assay [1] (setting [10]) was determined as 5000 nM.

As for `O=S1(=O)NCCCC[C@@H](CO)Nc2nc(ncc2Br)Nc2cccc1c2` [Example 14.4], the IC50 stood at 250 nM in assay [1] (setting [9]); 2000 nM in assay [1] (setting [10]); 4000 nM in assay [2] (Table I, read-out: MCF7 IC50); 1700 nM in assay [3].

Turning to `O=S1(=O)NCCCCNc2nc(ncc2Br)Nc2cccc1c2` [Example 14.6], the IC50 was 320 nM in assay [1] (setting [9]); 320 nM in assay [1] (setting [10]); 300 nM in assay [5]; 700 nM in assay [2] (Table I, read-out: MCF7 IC50); 700 nM in assay [2] (setting [11]); 500 nM in assay [6]. Also, the IC50 in assay [7] came to 1700 nM; in assay [3] it was 90 nM; in assay [8], 700 nM.

Compound `O=S1(=O)NCCC(O)CNc2nc(ncc2Br)Nc2cccc1c2` (stereo not drawn) [Example 14.8] yielded an IC50 in assay [3] of 200 nM.

For the compound `O=S1(=O)NCCCCNc2nc(ncc2Br)Nc2csc1c2` [Example 14.10], the IC50 worked out at 65 nM in assay [1] (setting [9]); 1900 nM in assay [2] (Table I, read-out: MCF7 IC50); 300 nM in assay [2] (setting [11]); 100 nM in assay [6]; 400 nM in assay [7]; 100 nM in assay [8]. Further, the IC50 in assay [4] amounted to 190 nM.

Turning to `NS(=O)(=O)c1ccc2cc1OCCCCCNc1nc(ncc1Br)N2` [Example 14.11], the IC50 in assay [1] (setting [9]) was 2400 nM; in assay [1] (setting [10]) it was 2400 nM; in assay [5] it was 1300 nM; in assay [2] (Table I, read-out: MCF7 IC50), 750 nM; in assay [2] (setting [11]) it was 750 nM; in assay [6], 700 nM. Further, the IC50 in assay [7] came out at 900 nM; in assay [3] it was 200 nM; in assay [8] it was 900 nM.

For `O=S1(=O)N[C@H]2CC[C@@H](CC2)Nc2nc(ncc2Br)Nc2cccc1c2` [Example 14.15], the IC50 was 130 nM in assay [1] (setting [9]); 1500 nM in assay [1] (setting [10]); 1300 nM in assay [5]; 1300 nM in assay [2] (Table I, read-out: MCF7 IC50); 1300 nM in assay [2] (setting [11]); 1000 nM in assay [6]. Also, the IC50 in assay [7] came to 1200 nM; in assay [3] it was 1500 nM; in assay [8], 1200 nM.

Turning to `Cc1ccc2cc1S(=O)(=O)NCCCNc1nc(ncc1Br)N2` [Example 14.16], the IC50 in assay [1] (setting [9]) is 4400 nM; in assay [2] (Table I, read-out: MCF7 IC50) it was above 10000 nM; in assay [3], 300 nM.

As for `OCC1CCCOc2cccc(c2)Nc2ncc(Br)c(n2)N1` (stereo not drawn) [Example 14.18], the IC50 came to 30 nM in assay [1] (setting [9]); 2100 nM in assay [2] (Table I, read-out: MCF7 IC50); 80 nM in assay [3]; 370 nM in assay [4].
